The values below come from patent publication US9822106B2, “Inhibitors of leukotriene A4 hydrolase” (Celtaxsys, Inc., priority 2013, dated 2017).

SMILES strings stand for the structures. Where two headings read alike, the source gives them in different places.

For test [1], the system named is ionophore-induced LTB4 production. To be noted: oral administration; rat peritoneum in vivo; cited from earlier work.
The test system of test [2] is colitis. To be noted: eight weeks of treatment; cotton top tamarins; cited from earlier work.
Test [3] deals with ionophore-induced LTB4 production. To be noted: oral administration; mouse blood ex vivo; cited from earlier work.
Test [4] addresses T1, LTA4-h hydrolase (Homo sapiens, UniProt P09960).
T1 construct: from tissue; host or cells: whole blood
T1 sequence (P09960 1-611): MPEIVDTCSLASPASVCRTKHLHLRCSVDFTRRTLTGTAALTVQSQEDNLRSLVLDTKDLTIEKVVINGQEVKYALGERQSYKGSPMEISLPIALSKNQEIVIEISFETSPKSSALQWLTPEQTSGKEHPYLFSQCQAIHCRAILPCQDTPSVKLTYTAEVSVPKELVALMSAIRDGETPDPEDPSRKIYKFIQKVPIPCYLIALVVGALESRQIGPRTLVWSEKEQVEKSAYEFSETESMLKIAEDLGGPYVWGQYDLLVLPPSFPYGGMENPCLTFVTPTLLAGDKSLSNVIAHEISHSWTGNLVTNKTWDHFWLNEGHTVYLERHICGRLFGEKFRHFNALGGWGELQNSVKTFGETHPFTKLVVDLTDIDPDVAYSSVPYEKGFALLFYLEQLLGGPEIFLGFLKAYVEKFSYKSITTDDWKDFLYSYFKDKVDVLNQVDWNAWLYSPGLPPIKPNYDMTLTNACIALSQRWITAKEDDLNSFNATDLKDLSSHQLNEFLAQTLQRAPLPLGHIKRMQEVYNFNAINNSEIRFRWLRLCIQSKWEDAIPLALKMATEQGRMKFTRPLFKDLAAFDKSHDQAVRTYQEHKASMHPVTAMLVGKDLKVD
The experiment in a line: whole blood assay (WBA). It is filed as cell-based. To be noted: read-out: IC50 WBA. The text has this:
Compounds of the invention can also be tested for their ability as inhibitors of LTA4-h hydrolase in the whole blood assay using human, mouse, rat or dog whole blood (see Penning, T. D. et al., J. Med. Chem. (2000), 43(4): 721-735 for a description of a human whole blood assay and a mouse whole blood assay, the contents of which are expressly incorporated herein).
(§1) Tables 4 to 6 below show the IC50 values for peptidase, hydrolase and whole blood assay (WBA) activity for exemplary compounds encompassed by the invention. The whole blood and aminopeptidase assays were performed as described in Penning et al., J. Med. Chem. 2000, 43, 721-735, and Rudberg et al., J. Biol. Chem. Vol. 279, No. 26, Issue of June 25, pp. 27376-27382, 2004, the contents of each of which are expressly incorporated by reference herein. The hydrolase assay was performed as described in U.S. Pat. No. 7,737,145, the contents of which are expressly incorporated herein.

The target in test [5] is T2, LTA4-h (Homo sapiens, UniProt P09960).
T2 sequence (P09960 1-611): T1 sequence (P09960 1-611)
Briefly: hydrolase assay (hydrolase-homogeneous time resolved fluorescence). The test is classed as biochemical.
Excerpt: The compounds of the invention can be tested for their ability to inhibit LTA4-h by various known assays and by assays described herein. For example, the compounds can be tested for their ability to inhibit LTA4-h activity by assaying the compounds in the hydrolase-homogeneous time resolved fluoroescence assay. This assay, which is a two-step assay, measures the hydrolysis of […] to LTB4 by analyzing the amount of LTB4 produced. The first step involves the enzymatic conversion of […] to LTB4 and the second step involves the quantification of the […] with a homogeneous time resolved fluoroescence assay.
as §1

The target in test [6] is T2, LTA4-h. The experiment in a line: peptidase (aminopeptidase) assay. The test is classed as biochemical. The text has this:
Since LTA4-h hydrolase is grouped with the M1 family of zinc metalloproteases (see, Rudberg, P. C. et al., J. Biol. Chem. 2002, Vol. 277, page 1398-1404), the compounds of the invention can be tested in the standard hydrolase and peptidase assay to determine the compounds' kinetic constants for binding to LTA4-h hydrolase and for inhibiting LTB4 synthesis (see Askonas, L. J., et al., The Journal of Pharmacology and Experimental Therapeutics 2002, 300(2): 577-582; Penning, T. D., J. Med. Chem. 2000, 43(4): 721-735; Kull, F. et al., The Journal of Biological Chemistry 1999, 274 (49): 34683-34690, the contents of which are expressly incorporated by reference herein).
The whole blood and aminopeptidase assays were performed as described in Penning et al., J. Med. Chem. 2000, 43, 721-735, and Rudberg et al., J. Biol. Chem. Vol. 279, No. 26, Issue of June 25, pp. 27376-27382, 2004, the contents of each of which are expressly incorporated by reference herein. The hydrolase assay was performed as described in U.S. Pat. No. 7,737,145, the contents of which are expressly incorporated herein.

For `CN(CCCOc1ccc(Cc2ccccc2)cc1)CCC(=O)O.Cl` [SC57461], the “inhibition of ionophore-induced LTB4 production” value in test [1] and in test [3] was “caused inhibition” each time. For the same compound, in test [2], the colitis symptoms entry is given as “significantly improved colitis symptoms”.
As to `CN(Cc1ccc(C(=O)O)cc1)c1ccc(CNCc2ccc(Oc3ccc(Cl)cc3)cc2)cn1` [Compound 1], the IC50 in test [4] amounted to 210 nM; in test [5] it was 280 nM; in test [6], 490 nM.
For the compound `C=CCOc1ccc(CNCc2ccc(N3CCCC(C(=O)O)C3)nc2)cc1` (stereo not drawn) [Compound 28], the IC50 is 1000 nM in test [4], 260 nM in test [5] and 73 nM in test [6].
The matching figures for `O=C(O)c1cccc(Oc2ncccc2CNCc2ccc(Oc3ccc(-c4ncco4)cc3)cc2)c1` [Compound 13]: 2300 nM, 1400 nM and 75 nM.

For orientation: IC50 means the concentration needed to halve the response being measured.
